Results from ChEMBL document CHEMBL3856212, “Synthesis, anti-proliferative and genotoxicity studies of 6-chloro-5-(2-substituted-ethyl)-1,3-dihydro-2H-indol-2-ones and 6-chloro-5-(2-chloroethyl)-3-(alkyl/ary-2-ylidene)indolin-2-ones” (Eur J Med Chem, 2016).

Columns and labels:
[1] = Cytotoxicity against human OVCAR8 cells assessed as growth inhibition after 48 hrs by SRB assay; format: functional; conditions: OVCAR-8, 48 h; for CC50: read-out: LD50 (the source's name)
[2] = Cytotoxicity against human HOP62 cells assessed as assessed as growth inhibition at 10^-5 M after 48 hrs by SRB assay relative to control; format: functional; conditions: HOP-62, 48 h, read-out: GI
[3] = Cytotoxicity against human SW620 cells assessed as growth inhibition after 48 hrs by SRB assay; format: functional; conditions: SW-620, 48 h; for CC50: read-out: LD50 (the source's name)
[4] = Cytotoxicity against human OVCAR3 cells assessed as growth inhibition after 48 hrs by SRB assay; format: functional; conditions: OVCAR-3, 48 h; for CC50: read-out: LD50 (the source's name)
[5] = Cytotoxicity against human HCT116 cells assessed as assessed as growth inhibition at 10^-5 M after 48 hrs by SRB assay relative to control; format: functional; conditions: HCT-116, 48 h, read-out: GI
[6] = Cytotoxicity against human SNB75 cells assessed as assessed as growth inhibition at 10^-5 M after 48 hrs by SRB assay relative to control; format: functional; conditions: SNB-75, 48 h, read-out: GI
[7] = Cytotoxicity against human NCI-H460 cells assessed as growth inhibition after 48 hrs by SRB assay; format: functional; conditions: NCI-H460, 48 h; for CC50: read-out: LD50 (the source's name)
[8] = Cytotoxicity against human MOLT4 cells assessed as growth inhibition after 48 hrs by SRB assay; format: functional; conditions: MOLT-4, 48 h; for CC50: read-out: LD50 (the source's name)
[9] = Induction of apoptosis in mouse EAC cells at 500 uM after 24 hrs by acridine orange dye-based fluorescence microscopy (reference value: 0.66 +/- 0.33%); format: cell-based; conditions: ehrlich
[10] = Cytotoxicity against human OVCAR4 cells assessed as growth inhibition after 48 hrs by SRB assay; format: functional; conditions: OVCAR-4, 48 h; for CC50: read-out: LD50 (the source's name)
[11] = Cytotoxicity against human SK-MEL-2 cells assessed as assessed as growth inhibition at 10^-5 M after 48 hrs by SRB assay relative to control; format: functional; conditions: SK-MEL-2, 48 h, read-out: GI
[12] = Cytotoxicity against human LOXIMVI cells assessed as assessed as growth inhibition at 10^-5 M after 48 hrs by SRB assay relative to control; format: functional; conditions: LOX IMVI, read-out: GI
[13] = Cytotoxicity against human KM12 cells assessed as growth inhibition after 48 hrs by SRB assay; format: functional; conditions: KM12, 48 h; for CC50: read-out: LD50 (the source's name)
[14] = Cytotoxicity against human NCI-H522 cells assessed as growth inhibition after 48 hrs by SRB assay; format: functional; conditions: NCI-H522, 48 h; for CC50: read-out: LD50 (the source's name)
[15] = Cytotoxicity against human Caki1 cells assessed as assessed as growth inhibition at 10^-5 M after 48 hrs by SRB assay relative to control; format: functional; conditions: CAKI-1, 48 h, read-out: GI
[16] = Cytotoxicity against human Caki1 cells assessed as growth inhibition after 48 hrs by SRB assay; format: functional; conditions: CAKI-1, 48 h; for CC50: read-out: LD50 (the source's name)
[17] = Cytotoxicity against human T47D cells assessed as growth inhibition after 48 hrs by SRB assay; format: functional; conditions: for CC50: read-out: LD50 (the source's name)
[18] = Cytotoxicity against human UACC257 cells assessed as assessed as growth inhibition at 10^-5 M after 48 hrs by SRB assay relative to control; format: functional; conditions: UACC-257, 48 h, read-out: GI
[19] = Cytotoxicity against human M14 cells assessed as growth inhibition after 48 hrs by SRB assay; format: functional; conditions: M14, 48 h; for CC50: read-out: LD50 (the source's name)
[20] = Cytotoxicity against human NCI-H23 cells assessed as growth inhibition after 48 hrs by SRB assay; format: functional; conditions: NCI-H23, 48 h; for CC50: read-out: LD50 (the source's name)
[21] = Cytotoxicity against human U251 cells assessed as assessed as growth inhibition at 10^-5 M after 48 hrs by SRB assay relative to control; format: functional; conditions: U-251, 48 h, read-out: GI
[22] = Cytotoxicity against human SNB19 cells assessed as assessed as growth inhibition at 10^-5 M after 48 hrs by SRB assay relative to control; format: functional; conditions: SNB-19, 48 h, read-out: GI
Mus musculus = species on record: Mus musculus; experiment: Genotoxicity in mouse EAC cells at 125 uM after 24 hrs by micronucleus assay (reference value: 3.5 +/- 0.30%); format: toxicity, cell-based; conditions: ehrlich
[23] = Cytotoxicity against human IGROV1 cells assessed as assessed as growth inhibition at 10^-5 M after 48 hrs by SRB assay relative to control; format: functional; conditions: IGROV-1, 48 h, read-out: GI
[24] = Cytotoxicity against human COLO205 cells assessed as growth inhibition after 48 hrs by SRB assay; format: functional; conditions: COLO 205, 48 h; for CC50: read-out: LD50 (the source's name)
[25] = Cytotoxicity against human EKVX cells assessed as growth inhibition after 48 hrs by SRB assay; format: functional; conditions: for CC50: read-out: LD50 (the source's name)
[26] = Cytotoxicity against human RXF393 cells assessed as assessed as growth inhibition at 10^-5 M after 48 hrs by SRB assay relative to control; format: functional; conditions: RXF 393, 48 h, read-out: GI
[27] = Cytotoxicity against human DU145 cells assessed as growth inhibition after 48 hrs by SRB assay; format: functional; conditions: DU-145, 48 h; for CC50: read-out: LD50 (the source's name)
[28] = Cytotoxicity against human SKOV3 cells assessed as growth inhibition after 48 hrs by SRB assay; format: functional; conditions: SK-OV-3, 48 h; for CC50: read-out: LD50 (the source's name)
[29] = Cytotoxicity against human SF539 cells assessed as growth inhibition after 48 hrs by SRB assay; format: functional; conditions: SF-539, 48 h; for CC50: read-out: LD50 (the source's name)
[30] = Induction of apoptosis in mouse EAC cells at 375 uM after 24 hrs by acridine orange dye-based fluorescence microscopy (reference value: 0.66 +/- 0.33%); format: cell-based; conditions: ehrlich
[31] = Cytotoxicity against human TK10 cells assessed as assessed as growth inhibition at 10^-5 M after 48 hrs by SRB assay relative to control; format: functional; conditions: TK-10, 48 h, read-out: GI
[32] = Cytotoxicity against human NCI-H322M cells assessed as assessed as growth inhibition at 10^-5 M after 48 hrs by SRB assay relative to control; format: functional; conditions: read-out: GI
[33] = Cytotoxicity against human NCI-ADR-RES cells assessed as growth inhibition after 48 hrs by SRB assay; format: functional; conditions: for CC50: read-out: LD50 (the source's name)

O=C1Cc2cc(CCn3cncn3)c(Cl)cc2N1
GI50 [1]: 6940 nM | TGI [1]: > 1000 nM | CC50 [1]: > 1000 nM | inhibition of growth at 10 µM [2]: 30.4% | GI50 [3]: 6600 nM | TGI [3]: > 1000 nM | CC50 [3]: > 1000 nM | GI50 [4]: 1000 nM | TGI [4]: > 1000 nM | CC50 [4]: > 1000 nM | inhibition of growth at 10 µM [5]: 21% | inhibition of growth at 10 µM [6]: 36.5% | GI50 [7]: 6860 nM | TGI [7]: > 1000 nM | CC50 [7]: > 1000 nM | GI50 [8]: 1000 nM | TGI [8]: > 1000 nM | CC50 [8]: > 1000 nM | Activity [9]: 0.36% | GI50 [10]: 1000 nM | TGI [10]: > 1000 nM | CC50 [10]: > 1000 nM | inhibition of growth at 10 µM [11]: 28.7% | inhibition of growth at 10 µM [12]: 19% | GI50 [13]: 5420 nM | TGI [13]: > 1000 nM | CC50 [13]: > 1000 nM | GI50 [14]: 5290 nM | TGI [14]: > 1000 nM | CC50 [14]: > 1000 nM | inhibition of growth at 10 µM [15]: 40% | GI50 [16]: 8350 nM | TGI [16]: > 1000 nM | CC50 [16]: > 1000 nM | GI50 [17]: 1000 nM | TGI [17]: > 1000 nM | CC50 [17]: > 1000 nM | inhibition of growth at 10 µM [18]: 48.3% | GI50 [19]: 3960 nM | TGI [19]: > 1000 nM | CC50 [19]: > 1000 nM | GI50 [20]: 1000 nM | TGI [20]: > 1000 nM | CC50 [20]: > 1000 nM | inhibition of growth at 10 µM [21]: 26.6% | inhibition of growth at 10 µM [22]: 25.6% | Activity (Mus musculus): 3.27% | inhibition of growth at 10 µM [23]: 15.3% | GI50 [24]: 2330 nM | TGI [24]: > 1000 nM | CC50 [24]: > 1000 nM | GI50 [25]: 8250 nM | TGI [25]: > 1000 nM | CC50 [25]: > 1000 nM | inhibition of growth at 10 µM [26]: 38% | GI50 [27]: 1000 nM | TGI [27]: > 1000 nM | CC50 [27]: > 1000 nM | GI50 [28]: 3650 nM | TGI [28]: > 1000 nM | CC50 [28]: > 1000 nM | GI50 [29]: 1000 nM | TGI [29]: > 1000 nM | CC50 [29]: > 1000 nM | Activity [30]: 0.9% | inhibition of growth at 10 µM [31]: -21.7% | inhibition of growth at 10 µM [32]: 7.87% | GI50 [33]: 5850 nM | TGI [33]: > 1000 nM | CC50 [33]: > 1000 nM

O=C1Cc2cc(CCn3ccnc3)c(Cl)cc2N1
GI50 [1]: 2410 nM | TGI [1]: > 1000 nM | CC50 [1]: > 1000 nM | inhibition of growth at 10 µM [2]: 33.1% | GI50 [3]: 5020 nM | TGI [3]: > 1000 nM | CC50 [3]: > 1000 nM | GI50 [4]: 9310 nM | TGI [4]: 7810 nM | CC50 [4]: > 1000 nM | inhibition of growth at 10 µM [5]: 28% | inhibition of growth at 10 µM [6]: 31.7% | GI50 [7]: 1610 nM | TGI [7]: > 1000 nM | CC50 [7]: > 1000 nM | GI50 [8]: 5670 nM | TGI [8]: > 1000 nM | CC50 [8]: > 1000 nM | Activity [9]: 0.53% | GI50 [10]: 4500 nM | TGI [10]: > 1000 nM | CC50 [10]: > 1000 nM | inhibition of growth at 10 µM [11]: 19.3% | inhibition of growth at 10 µM [12]: 26.4% | GI50 [13]: 3580 nM | TGI [13]: 9840 nM | CC50 [13]: > 1000 nM | GI50 [14]: 4740 nM | TGI [14]: 4790 nM | CC50 [14]: > 1000 nM | inhibition of growth at 10 µM [15]: 36.3% | GI50 [16]: 6320 nM | TGI [16]: > 1000 nM | CC50 [16]: > 1000 nM | GI50 [17]: 7560 nM | TGI [17]: > 1000 nM | CC50 [17]: > 1000 nM | inhibition of growth at 10 µM [18]: 39.8% | GI50 [19]: 3460 nM | TGI [19]: 3980 nM | CC50 [19]: > 1000 nM | GI50 [20]: 4080 nM | TGI [20]: > 1000 nM | CC50 [20]: > 1000 nM | inhibition of growth at 10 µM [21]: 32.7% | inhibition of growth at 10 µM [22]: 28.5% | Activity (Mus musculus): 2.76% | inhibition of growth at 10 µM [23]: 13.3% | GI50 [24]: 1510 nM | TGI [24]: > 1000 nM | CC50 [24]: > 1000 nM | GI50 [25]: 6130 nM | TGI [25]: > 1000 nM | CC50 [25]: > 1000 nM | inhibition of growth at 10 µM [26]: 42% | GI50 [27]: 8020 nM | TGI [27]: > 1000 nM | CC50 [27]: > 1000 nM | GI50 [28]: 1810 nM | TGI [28]: > 1000 nM | CC50 [28]: > 1000 nM | GI50 [29]: 6000 nM | TGI [29]: > 1000 nM | CC50 [29]: > 1000 nM | Activity [30]: 0.66% | inhibition of growth at 10 µM [31]: -23.4% | inhibition of growth at 10 µM [32]: 9.68% | GI50 [33]: 5460 nM | TGI [33]: > 1000 nM | CC50 [33]: > 1000 nM
